Experimental findings from US8580824B2, “Pyridin-4-yl derivatives as immunomodulating agents” (Actelion Pharmaceuticals Ltd., priority 2006, dated 2013) are described below.

The structures appear in SMILES notation.

Sequence of recombinant human S1P1 receptor (P21453 whole entry): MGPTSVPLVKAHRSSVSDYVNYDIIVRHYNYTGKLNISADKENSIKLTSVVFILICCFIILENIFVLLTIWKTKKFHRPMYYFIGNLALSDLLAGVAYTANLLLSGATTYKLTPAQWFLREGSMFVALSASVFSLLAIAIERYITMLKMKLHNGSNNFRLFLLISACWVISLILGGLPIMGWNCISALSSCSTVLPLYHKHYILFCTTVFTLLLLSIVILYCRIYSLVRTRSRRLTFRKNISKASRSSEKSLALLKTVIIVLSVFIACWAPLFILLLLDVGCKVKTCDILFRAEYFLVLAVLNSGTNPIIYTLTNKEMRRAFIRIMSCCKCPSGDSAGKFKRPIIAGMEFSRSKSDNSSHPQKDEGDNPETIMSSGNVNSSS

One assay has as its target recombinant human S1P1 receptor (Homo sapiens, UniProt P21453). Kind of assay: GTPγS assay to determine EC50 values. It is filed as biochemical. The following applies: agonistic activity; membrane preparations of CHO cells expressing recombinant human S1P1 receptor; 35S-GTPγS binding. The method, then: i) GTPγS assay to determine EC50 values
GTPγS binding assays are performed in 96 well microtiter plates (Nunc, 442587) in a final volume of 200 μl, using membrane preparations of CHO cells expressing recombinant human S1P1 receptor. Assay conditions are 20 mM Hepes (Fluka, 54461), 100 mM NaCl (Fluka, 71378), 5 mM MgCl2 (Fluka, 63064), 0.1% BSA (Calbiochem, 126609), 1 μM GDP (Sigma, G-7127), 2.5% DMSO (Fluka, 41644), 50 pM ^35S-GTPγS (Amersham Biosciences, SJ1320). The pH is 7.4. Test compounds are dissolved and diluted in 100% DMSO and pre-incubated at room temperature for 30 min in 150 μl of the above assay buffer, in the absence of ^35S-GTPγS. After addition of 50 μl of ^35S-GTPγS, the assay is incubated for 1 h at rt. The assay is terminated by transfer of the reaction mixture to a Multiscreen plate (Millipore, MAHFC1H60) using a cell harvester from Packard Biosciences, and the plates are washed with ice-cold 10 mM Na2HPO4/NaH2PO4 (70%/30%), dried, sealed at the bottom and, after addition of 25 μl MicroScint20 (Packard Biosciences, order#6013621), sealed on the top. Membrane-bound ^35S-GTPγS is measured with a TopCount from Packard Biosciences.
EC50 is the concentration of agonist inducing 50% of the maximal specific ^35S-GTPγS binding. Specific binding is determined by subtracting non-specific binding from maximal binding. Maximal binding is the amount of cpm bound to the Multiscreen plate in the presence of 10 μM of S1P. Non-specific binding is the amount of binding in the absence of an agonist in the assay.
A general note: GTPγS is a poorly hydrolysed GTP analogue; its binding reports G protein activation.
Turning to `Cc1cc(-c2noc(-c3cc(Cl)nc(CC(C)C)c3)n2)cc(C)c1OCC(O)CO` (racemic) [Example 4, (RS)-3-{4-[5-(2-Chloro-6-isobutyl-pyridin-4-yl)-[1,2,4]oxadiazol-3-yl]-2,6-dimethyl-phenoxy}-propane-1,2-diol], the concentration for a half-maximal effect (EC50) worked out at 0.7 nM.

As for `Cc1cc(-c2nc(-c3cc(C)c(OCC(O)CNC(=O)CO)c(C)c3)no2)cc(CC(C)C)n1` (racemic) [Example 11, 2-Hydroxy-N-((RS)-2-hydroxy-3-{4-[5-(2-isobutyl-6-methyl-pyridin-4-yl)-[1,2,4]oxadiazol-3-yl]-2,6-dimethyl-phenoxy}-propyl)-acetamide], the EC50 amounted to 0.2 nM.

Consider `Cc1cc(-c2noc(-c3cc(Cl)nc(OC(C)C)c3)n2)cc(C)c1OCC(O)CNC(=O)CO` (racemic) [Example 26, N-((RS)-3-{4-[5-(2-Chloro-6-isopropoxy-pyridin-4-yl)-[1,2,4]oxadiazol-3-yl]-2,6-dimethyl-phenoxy}-2-hydroxy-propyl)-2-hydroxy-acetamide], for which the concentration giving a half-maximal response (EC50) was found to be 0.4 nM.

In the case of `CCOc1cc(-c2nc(-c3cc(C)c(OCC(O)CO)c(C)c3)no2)cc(C)n1` (racemic) [Example 27, (RS)-3-{4-[5-(2-Ethoxy-6-methyl-pyridin-4-yl)-[1,2,4]oxadiazol-3-yl]-2,6-dimethyl-phenoxy}-propane-1,2-diol], the 50% effective concentration (EC50) is 2.5 nM.

Regarding `CCc1cc(-c2nc(-c3cc(C)c(OC[C@H](O)CNC(=O)CO)c(Cl)c3)no2)cc(C)n1` [Example 60], the concentration for a half-maximal effect (EC50) stood at 0.5 nM.

With `CCc1cc(-c2noc(-c3cc(C)c(OC[C@@H](O)CNC(=O)CO)c(CC)c3)n2)cc(C)n1` [Example 74], the EC50 turned out to be 4.3 nM.

As for `CCCc1cc(-c2nc(-c3cc(C)c(O)c(CC)c3)no2)cc(C)n1` [Example 86], the EC50 was determined as 5.6 nM.

Consider `CCCc1cc(-c2nc(-c3cc(C)c(OCC(O)CNC(=O)CO)c(C)c3)no2)cc(C)n1` (centres unmarked) [Example 95], for which the EC50 was 0.4 nM.

With `CCCc1cc(-c2nnc(-c3cc(C)c(OC[C@@H](O)CNC(=O)CO)c(C)c3)o2)cc(C)n1` [Example 111], the concentration for a half-maximal effect (EC50) came out at 1.8 nM.

Take `CCCc1cc(-c2noc(-c3cc(C)nc(C(C)C)c3)n2)cc(C)c1OC[C@@H](O)CNC(=O)CO` [Example 123]: the concentration giving a half-maximal response (EC50) is 0.4 nM.

As to `Cc1cc(-c2nc(-c3cc(C)c(OCC(O)CNC(=O)CO)c(Cl)c3)no2)cc(CC(C)C)n1` (centres unmarked) [Example 145], the EC50 is 0.2 nM.

`COc1cc(-c2noc(-c3cc(C)nc(CC(C)C)c3)n2)cc(Cl)c1OC[C@H](O)CNC(=O)CO` [Example 160]: the concentration for a half-maximal effect (EC50) turned out to be 0.7 nM.

In the case of `CCc1cc(-c2nnc(-c3cc(C)nc(CC(C)C)c3)o2)cc(C)c1OC[C@@H](O)CNC(=O)CO` [Example 180], the EC50 amounted to 0.8 nM.

Take `CCc1cc(-c2noc(-c3cc(C)nc(C(CC)CC)c3)n2)cc(C)c1OC[C@@H](O)CO` [Example 196]: the EC50 came out at 0.6 nM.

Turning to `CCc1cc(-c2noc(-c3cc(CC(C)C)nc(OC)c3)n2)cc(C)c1OC[C@@H](O)CNC(=O)CO` [Example 226], the EC50 was 0.9 nM.

Consider `CCc1cc(-c2ncc(-c3cc(C)nc(CC(C)C)c3)o2)cc(C)c1OC[C@@H](O)CO` [Example 235, (S)-3-{2-Ethyl-4-[5-(2-isobutyl-6-methyl-pyridin-4-yl)-oxazol-2-yl]-6-methyl-phenoxy}-propane-1,2-diol], for which the concentration for a half-maximal effect (EC50) is 5.8 nM.

Another assay has as its system circulating lymphocytes in normotensive male Wistar rats. In words: Assessment of in vivo efficacy: circulating lymphocytes after oral administration. Also on record: species or system rat. The settings on record: 6 h after oral administration of 10 mg/kg to normotensive male Wistar rats, compared to vehicle-treated group. The method, then:
The efficacy of the compounds of Formula (I) is assessed by measuring the circulating lymphocytes after oral administration of 3 to 30 mg/kg of a compound of Formula (I) to normotensive male Wistar rats. The animals are housed in climate-controlled conditions with a 12 h-light/dark cycle, and have free access to normal rat chow and drinking water. Blood is collected before and 3, 6 and 24 h after drug administration. Full blood is subjected to hematology using Advia Hematology system (Bayer Diagnostics, Zurich, Switzerland).
All data are presented as mean±SEM. Statistical analyses are performed by analysis of variance (ANOVA) using Statistica (StatSoft) and the Student-Newman-Keuls procedure for multiple comparisons. The null hypothesis is rejected when p<0.05.
Lymphocyte counts 6 h after oral administration have been measured for 51 from 244 exemplified compounds (one being dosed at 3 mg/kg) and are in the range of −78% to −53% with an average of −67%.
Consider `CCc1cc(-c2nc(-c3cc(C)c(OCC(O)CO)c(C)c3)no2)cc(C)n1` (racemic) [Example 8, (RS)-3-{4-[5-(2-Ethyl-6-methyl-pyridin-4-yl)-[1,2,4]oxadiazol-3-yl]-2,6-dimethyl-phenoxy}-propane-1,2-diol], for which the Lymphocyte counts was −62%.

As for `Cc1cc(-c2nc(-c3cc(C)c(OCC(O)CO)c(C)c3)no2)cc(CC(C)C)n1` (racemic) [Example 9, (RS)-3-{4-[5-(2-Isobutyl-6-methyl-pyridin-4-yl)-[1,2,4]oxadiazol-3-yl]-2,6-dimethyl-phenoxy}-propane-1,2-diol], the Lymphocyte counts is reported as −67%.

As to `Cc1cc(-c2nc(-c3cc(C)c(OCC(O)CNC(=O)CO)c(C)c3)no2)cc(OC(C)C)n1` (racemic) [Example 30, 2-Hydroxy-N-((RS)-2-hydroxy-3-{4-[5-(2-isopropoxy-6-methyl-pyridin-4-yl)-[1,2,4]oxadiazol-3-yl]-2,6-dimethyl-phenoxy}-propyl)-acetamide], the Lymphocyte counts is recorded as −73%.

Take `COc1cc(-c2noc(-c3cc(C)nc(CC(C)C)c3)n2)cc(C)c1OCC(O)CNC(=O)CO` (racemic) [Example 159, (RS)-2-Hydroxy-N-(2-hydroxy-3-{4-[5-(2-isobutyl-6-methyl-pyridin-4-yl)-[1,2,4]oxadiazol-3-yl]-2-methoxy-6-methyl-phenoxy}-propyl)-acetamide]: the Lymphocyte counts is −74%.

Broadly, the EC50 is the concentration giving half of the maximal effect.
